Tests used:
[1] = tested on: human platelet rich plasma (PRP); test: ADP induced platelet aggregation assay; conditions: Homo sapiens, Platelet, 5 min, read-out: PA IC50 (μM) @ 10 μM ADP, human PRP, 10 μM ADP, AUC at 5 minute
Procedure: The ability of P2Y1 antagonists covered in the present invention to inhibit platelet aggregation induced by 10 μM ADP was tested using human platelet rich plasma (PRP) as described in Platelet Protocols: Research and Clinical Laboratory Procedures (White, M. M. et al., Academic Press (1999)). Human blood was collected in 30 μM (final concentration in blood) argatroban (GSK) as the anticoagulant at a ratio of 1 mL per 9 mL of blood. The PRP was isolated by centrifugation at 170 g for 12 minutes. The platelet poor plasma (PPP) was used as the blank for optical aggregometry. Compounds of the present invention in DMSO solution was preincubated with 250 μL PRP at 37° C. for 1 minute with stirring speed of 1000 rpm. Aggregation was initiated by addition of 2.5 μL of 1 mM ADP (Chrono-log, Havertown, Pa.) for a final ADP concentration of 10 μM. Platelet aggregation was monitored using Optical Aggregometer (Chrono-log, Havertown, Pa.) and the area under the curve (AUC) at 5 minute was measured. IC50 was calculated using vehicle control as 0% inhibition.

[2] = target: cloned human P2Y1 receptors (Homo sapiens (Human), UniProt P47900); test: Binding Assay B - Scintillation Proximity Assay (SPA) for P2Y1 binding, [33P] 2MeS-ADP; conditions: SPA, 0.3 nM [33P] 2MeS-ADP, Cheng-Prusoff; read-out: P2Y1 Ki (nM) using binding assay B
Procedure: Binding Assay B—Scintillation Proximity Assay (SPA) for P2Y1 Binding
A SPA membrane binding assay was used to identify inhibitors of [^33P] […] Reactions were allowed to proceed to completion at room temperature for 1 hour followed by centrifugation of the plate for 5 min. About 40 μL of the aqueous solution was aspirated. Plates were sealed and the [^33P]

cloned human P2Y1 receptors, sequence (P47900 whole entry): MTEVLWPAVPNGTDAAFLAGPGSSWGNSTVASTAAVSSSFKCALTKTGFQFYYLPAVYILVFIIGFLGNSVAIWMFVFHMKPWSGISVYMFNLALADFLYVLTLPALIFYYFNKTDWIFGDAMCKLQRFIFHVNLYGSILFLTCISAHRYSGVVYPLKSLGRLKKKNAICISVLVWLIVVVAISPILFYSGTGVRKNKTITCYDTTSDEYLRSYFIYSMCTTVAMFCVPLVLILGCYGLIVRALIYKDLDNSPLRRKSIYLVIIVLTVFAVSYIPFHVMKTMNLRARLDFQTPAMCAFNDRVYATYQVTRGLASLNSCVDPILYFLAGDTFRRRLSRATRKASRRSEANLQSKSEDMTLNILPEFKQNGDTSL

**Q.** What does the source list for `CCC1(CC)CN(c2ccccc2NC(=O)Nc2ccc(OC(F)(F)F)cc2)c2c(O)ccc(C=O)c21` [Example 73, 1-(2-(3,3-Diethyl-4-formyl-7-hydroxyindolin-1-yl)phenyl)-3-(4-(trifluoromethoxy)phenyl)urea]?
**A.** IC50 [1]: 0.9 µM; Ki [2]: 4.5 nM

**Q.** For `CC1(C)CN(c2ccccc2NC(=O)NC2CCN(CC(F)(F)F)CC2)c2c(O)ccc(C(F)(F)F)c21` [Example 3, 1-(2-(7-Hydroxy-3,3-dimethyl-4-(trifluoromethyl)indolin-1-yl)phenyl)-3-(1-(2,2,2-trifluoroethyl)piperidin-4-yl)urea], which IC50 [1] is on record?
**A.** The IC50 was 3.1 µM.

**Q.** And the Ki [2]?
**A.** The Ki was 4.9 nM.

**Q.** `CCC1(CC)CN(c2ccccc2NC(=O)Nc2ccc(C3CCN(CC(C)(C)C)CC3)cc2)c2c(O)ccc(C(F)(F)F)c21` [Example 25, 1-(2-(3,3-Diethyl-7-hydroxy-4-(trifluoromethyl)indolin-1-yl)phenyl)-3-(4-(1-neopentylpiperidin-4-yl)phenyl)urea] was tested. Which IC50 [1] did it give?
**A.** Its IC50 is 0.26 µM.

**Q.** What about the Ki [2] of the same compound?
**A.** Its Ki is 6.3 nM.

**Q.** For `CC(C)(C)Sc1ccc(O)c2c1C(C)(C)CN2c1ccccc1NC(=O)Nc1ccc(OC(F)(F)F)cc1` [Example 72, 1-(2-(4-(tert-Butylthio)-7-hydroxy-3,3-dimethylindolin-1-yl)phenyl)-3-(4-(trifluoromethoxy)phenyl)urea], which IC50 [1] is on record?
**A.** The IC50 was 1.05 µM.

**Q.** What about the Ki [2] of the same compound?
**A.** The Ki was 32.2 nM.

**Q.** Which IC50 [1] does the source give for `CC(C)CCn1cc(-c2c(F)cc(O)c3c2C(C)(C)CN3c2ccccc2NC(=O)Nc2ccc(OC(F)(F)F)cc2)cn1` [Example 185, 1-(2-(5-Fluoro-7-hydroxy-4-(1-isopentyl-1H-pyrazol-4-yl)-3,3-dimethylindolin-1-yl)phenyl)-3-(4-(trifluoromethoxy)phenyl)urea] here?
**A.** The IC50 was 0.16 µM.

**Q.** What about the Ki [2] of the same compound?
**A.** Its Ki is 13.3 nM.

**Q.** For `CC(C)(C)c1ccc(NC(=O)Nc2ccccc2N2CC(C)(C)c3ccccc32)cc1` [Comparator 1, reference compound], which IC50 [1] is on record?
**A.** Its IC50 is > 20 µM.

**Q.** And the Ki [2]?
**A.** The Ki was 12.9 nM.

**Q.** With `CC1(C)CN(c2ccccc2NC(=O)Nc2ccc(OC(F)(F)F)cc2)c2c(O)ccc(-c3ccc(F)cc3)c21` [Example 193, 1-(2-(4-(4-Fluorophenyl)-7-hydroxy-3,3-dimethylindolin-1-yl)phenyl)-3-(4-(trifluoromethoxy)phenyl)urea] as the compound, how does the IC50 [1] read?
**A.** The IC50 was 0.12 µM.

**Q.** What about the Ki [2] of the same compound?
**A.** Its Ki is 6.9 nM.

**Q.** Which results are given for `CCc1ccc(NC(=O)Nc2ccccc2N2CC(CC)(CC)c3c(F)ccc(O)c32)cc1` [Example 27, 1-(2-(3,3-Diethyl-4-fluoro-7-hydroxyindolin-1-yl)phenyl)-3-(4-ethylphenyl)urea]?
**A.** IC50 [1]: 1.02 µM; Ki [2]: 3.1 nM

**Q.** How did the IC50 [1] turn out when `CC(C)CN1CCC(c2ccc(NC(=O)Nc3ccccc3N3CC(C)(C)c4c(-c5ccc(F)cc5)ccc(O)c43)cc2)CC1` [Example 211, 1-(2-(4-(4-Fluorophenyl)-7-hydroxy-3,3-dimethylindolin-1-yl)phenyl)-3-(4-(1-isobutylpiperidin-4-yl)phenyl)urea] was run?
**A.** Its IC50 is 0.46 µM.

**Q.** And the Ki [2]?
**A.** The Ki was 27.1 nM.

**Q.** Which IC50 [1] does the source give for `CC1(C)CN(c2ccccc2NC(=O)Nc2nc3ccc(F)cc3s2)c2c(O)cc(F)c(-c3noc(C(F)(F)F)n3)c21` [Example 277, 1-(2-(5-Fluoro-7-hydroxy-3,3-dimethyl-4-(5-(trifluoromethyl)-1,2,4-oxadiazol-3-yl)indolin-1-yl)phenyl)-3-(6-fluorobenzo[d]thiazol-2-yl)urea] here?
**A.** The IC50 was 0.26 µM.

**Q.** What about the Ki [2] of the same compound?
**A.** Its Ki is 54.9 nM.

**Q.** Which IC50 [1] does the source give for `CC1(C)CN(c2ccccc2NC(=O)Nc2ccc(OC(F)(F)F)cc2)c2c(O)ccc(-c3nc4cc(C(F)(F)F)ccc4s3)c21` [Example 87] here?
**A.** Its IC50 is 0.27 µM.

**Q.** What about the Ki [2] of the same compound?
**A.** Its Ki is 42.9 nM.

**Q.** With `CC1(C)CN(c2ccccc2NC(=O)Nc2nc3ccc(F)nc3s2)c2c(O)cc(F)c(-c3ccc(Cl)cc3)c21` [Example 227, 1-(2-(4-(4-Chlorophenyl)-5-fluoro-7-hydroxy-3,3-dimethylindolin-1-yl)phenyl)-3-(5-fluorothiazolo[5,4-b]pyridin-2-yl)urea] as the compound, how does the IC50 [1] read?
**A.** The IC50 was 0.56 µM.

**Q.** And the Ki [2]?
**A.** Its Ki is 21.6 nM.

**Q.** Which results are given for `CC(C)(C)c1nc(-c2c(F)cc(O)c3c2C(C)(C)CN3c2ccccc2NC(=O)Nc2nc3ccc(Cl)cc3s2)co1` [Example 270, 1-(2-(4-(2-(tert-Butyl)oxazol-4-yl)-5-fluoro-7-hydroxy-3,3-dimethylindolin-1-yl)phenyl)-3-(6-chlorobenzo[d]thiazol-2-yl)urea]?
**A.** IC50 [1]: 0.43 µM; Ki [2]: 17.3 nM

**Q.** `Cn1nc(C(F)(F)F)cc1-c1c(F)cc(O)c2c1C(C)(C)CN2c1ccccc1NC(=O)Nc1ccc(OC(F)(F)F)cc1` [Example 183, 1-(2-(5-Fluoro-7-hydroxy-3,3-dimethyl-4-(1-methyl-3-(trifluoromethyl)-1H-pyrazol-5-yl)indolin-1-yl)phenyl)-3-(4-(trifluoromethoxy)phenyl)urea] was tested. Which IC50 [1] did it give?
**A.** Its IC50 is 0.21 µM.

**Q.** And the Ki [2]?
**A.** Its Ki is 11.3 nM.

**Q.** Which IC50 [1] does the source give for `CCOC(=O)C1(C)CN(c2ccccc2NC(=O)Nc2nc3ccc(F)cc3s2)c2c(O)ccc(Cl)c21` (centres unmarked) [Example 76, Ethyl 4-chloro-1-(2-(3-(6-fluorobenzo[d]thiazol-2-yl)ureido)phenyl)-7-hydroxy-3-methylindoline-3-carboxylate] here?
**A.** Its IC50 is 0.4 µM.

**Q.** And the Ki [2]?
**A.** The Ki was 11.5 nM.

**Q.** What does the source list for `CC1(C)CN(c2ccccc2NC(=O)Nc2ccc(OC(F)(F)F)cc2)c2c(O)cc(F)c(-c3ccnc(F)c3)c21` [Example 190, 1-(2-(5-Fluoro-4-(2-fluoropyridin-4-yl)-7-hydroxy-3,3-dimethylindolin-1-yl)phenyl)-3-(4-(trifluoromethoxy)phenyl)urea]?
**A.** IC50 [1]: 0.48 µM; Ki [2]: 10.6 nM

**Q.** How did the IC50 [1] turn out when `CC1(C)CN(c2ccccc2NC(=O)Nc2ccc(OC(F)(F)F)cc2)c2c(O)cc(F)c(-c3cc(C(F)(F)F)no3)c21` [Example 262, 1-(2-(5-Fluoro-7-hydroxy-3,3-dimethyl-4-(3-(trifluoromethyl)isoxazol-5-yl)indolin-1-yl)phenyl)-3-(4-(trifluoromethoxy)phenyl)urea] was run?
**A.** The IC50 was 0.92 µM.

**Q.** And the Ki [2]?
**A.** Its Ki is 12.9 nM.

**Q.** `CC1(C)CN(c2ccccc2NC(=O)Nc2nc3ccc(Cl)cc3s2)c2c(O)ccc(-c3ccc(F)cc3)c21` [Example 199, 1-(6-Chlorobenzo[d]thiazol-2-yl)-3-(2-(4-(4-fluorophenyl)-7-hydroxy-3,3-dimethylindolin-1-yl)phenyl)urea] was tested. Which IC50 [1] did it give?
**A.** The IC50 was 0.18 µM.

**Q.** And the Ki [2]?
**A.** Its Ki is 10.1 nM.

**Q.** What does the source list for `CC1(C)CN(c2ccccc2NC(=O)Nc2ccc(OC(F)(F)F)cc2)c2c(O)ccc(-c3cccc(F)c3)c21` [Example 206, 1-(2-(4-(3-Fluorophenyl)-7-hydroxy-3,3-dimethylindolin-1-yl)phenyl)-3-(4-(trifluoromethoxy)phenyl)urea]?
**A.** IC50 [1]: 0.24 µM; Ki [2]: 8.5 nM

**Q.** Which results are given for `CC1(C)CN(c2ccccc2NC(=O)Nc2nc3ccc(F)nc3s2)c2c(O)cc(F)c(-c3ccc(F)cc3)c21` [Example 233, 1-(2-(5-Fluoro-4-(4-fluorophenyl)-7-hydroxy-3,3-dimethylindolin-1-yl)phenyl)-3-(5-fluorothiazolo[5,4-b]pyridin-2-yl)urea]?
**A.** IC50 [1]: 0.31 µM; Ki [2]: 9.4 nM

**Q.** What does the source list for `CC1(C)CN(c2ccccc2NC(=O)Nc2ccc(OC(F)(F)F)cc2)c2c(O)ccc(Cl)c21` [Example 56, 1-(2-(4-Chloro-7-hydroxy-3,3-dimethylindolin-1-yl)phenyl)-3-(4-(trifluoromethoxy)phenyl)urea]?
**A.** IC50 [1]: 0.87 µM; Ki [2]: 8.7 nM

**Q.** With `CC1(C)CN(c2ccccc2NC(=O)Nc2ccc(OC(F)(F)F)cc2)c2c(O)ccc(-c3nc4ccc(F)cc4o3)c21` [Example 92, 1-(2-(4-(6-Fluorobenzo[d]oxazol-2-yl)-7-hydroxy-3,3-dimethylindolin-1-yl)phenyl)-3-(4-(trifluoromethoxy)phenyl)urea] as the compound, how does the IC50 [1] read?
**A.** The IC50 was 0.2 µM.

**Q.** And the Ki [2]?
**A.** The Ki was 36.6 nM.

— patent US9540323B2 (BRISTOL-MYERS SQUIBB COMPANY, priority 2012, dated 2017)
